# ± gives the standard deviation of the averaged measurements.
# System: MCF7
# Assay: HRG-induced Akt activation (dPAkt = log2 pAkt/Akt HRG-stimulated minus log2 pAkt/Akt basal) (log2 ratio difference); higher = stronger HRG-induced Akt(T308) phosphorylation
# Details: miRNA mimic concentration 10 nM; time after transfection 72 h; heregulin 10 ng/ml; stimulation time 1 h
# How it was run: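 MCF7 cells ([…], 96-well plates) were transfected with a library of 879 miRNA mimics at 10 nM final using Lipofectamine RNAiMax, in two biological replicates. After 72 h, cells were stimulated with 10 ng/ml heregulin-beta1 for 1 h or left unstimulated. They were fixed with 4% PFA, and phospho-Akt(T308) and total Akt were read by In-Cell Western on an Odyssey. Signals were corrected for column-wise fixation decay, and HRG-induced Akt activation is log2(pAkt/Akt) stimulated minus unstimulated, averaged over replicates.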
row,Sequence,HRG-induced Akt activation (log2)
1,ACCACUGACCGUUGACUGUACC,1.81 ± 0.74
2,AGUUUUGCAUAGUUGCACUACA,1.37 ± 0.032
3,ACUCCAGCCCCACAGCCUCAGC,1.84 ± 0.05
4,GUGUUAAUUAAACCUCUAUUUAC,1.76 ± 0.034
5,AAAAGUAAUUGUGGUUUUUGCC,1.07 ± 0.085
6,UGGUCUAGGAUUGUUGGAGGAG,1.61 ± 0.078
7,GUGAAUUACCGAAGGGCCAUAA,1.03 ± 0.12
8,UGAGGUAGUAGGUUGUAUGGUU,1.07 ± 0.07
9,AAAACUGUAAUUACUUUUGUAC,1.26 ± 0.31
10,GCUAUUUCACGACACCAGGGUU,1.693 ± 0.0017
11,GUAGAGGAGAUGGCGCAGGG,1.33 ± 0.22
12,UGUGAGGUUGGCAUUGUUGUCU,2.02 ± 0.55
13,AAAAUGGUGCCCUAGUGACUACA,1.9 ± 0.43
14,GUGUCUGCUUCCUGUGGGA,2.6 ± 0.069
15,UAGCACCAUUUGAAAUCGGUUA,1.17 ± 0.57
16,AAAGGAUUCUGCUGUCGGUCCCACU,1.63 ± 0.2
17,CAAAGUGCUUACAGUGCAGGUAG,1.23 ± 0.17
18,UCUGGCUCCGUGUCUUCACUCCC,0.873 ± 0.15
19,GUGCAUUGCUGUUGCAUUGC,1.178 ± 0.00052
20,UUCACAAGGAGGUGUCAUUUAU,1.442 ± 0.013
21,CAUUGCACUUGUCUCGGUCUGA,1.74 ± 0.8
22,GCGAGGACCCCUCGGGGUCUGAC,1.05 ± 0.48

row,Sequence,HRG-induced Akt activation (log2)
1,GUCCCUCUCCAAAUGUGUCUUG,0.988 ± 0.27
2,UGCCCUUAAAGGUGAACCCAGU,1.22 ± 0.2
3,CAAAACGUGAGGCGCUGCUAU,1.27 ± 0.087
4,AAAGUGCAUCUUUUUAGAGGAU,0.724 ± 0.058
5,UCUGGGCAACAAAGUGAGACCU,0.753 ± 0.69
6,UACUGCAGACAGUGGCAAUCA,1.21 ± 0.45
7,UAGUGCAAUAUUGCUUAUAGGGU,0.808 ± 0.069
8,UGUGCGCAGGGAGACCUCUCCC,0.835 ± 0.095
9,AAACAUUCGCGGUGCACUUCUU,1.84 ± 0.035
10,UGAGCUGCUGUACCAAAAU,2.107 ± 0.0035
11,CAGGGAGGUGAAUGUGAU,1.71 ± 0.099
12,ACCAGGAGGCUGAGGCCCCU,1.68 ± 0.1
13,AGGUUGUCCGUGGUGAGUUCGCA,1.02 ± 0.18
14,AACUGGCCCUCAAAGUCCCGCU,2.215 ± 0.013
15,AACCCGUAGAUCCGAUCUUGUG,0.985 ± 0.36
16,UCCGAGCCUGGGUCUCCCUCUU,1.37 ± 0.23
17,CAAGCUCGUGUCUGUGGGUCCG,0.995 ± 0.35
18,UGAGUUGGCCAUCUGAGUGAG,1.61 ± 0.27
19,GACACGGGCGACAGCUGCGGCCC,1.03 ± 0.89
20,GGCGGAGGGAAGUAGGUCCGUUGGU,1.52 ± 0.058
21,GGAGGGGUCCCGCACUGGGAGG,1.82 ± 0.057
22,CACACACUGCAAUUACUUUUGC,1.53 ± 0.053

row,Sequence,HRG-induced Akt activation (log2)
1,CGCAUCCCCUAGGGCAUUGGUGU,2.62 ± 0.28
2,CCUCCCACACCCAAGGCUUGCA,1.37 ± 0.3
3,AAUGCACCUGGGCAAGGAUUCA,1.43 ± 0.42
4,UCACAAUGCUGACACUCAAACUGCUGAC,1.45 ± 0.48
5,UACUCCAGAGGGCGUCACUCAUG,1.02 ± 0.78
6,AUAAGACGAGCAAAAAGCUUGU,1.73 ± 0.05
7,ACUUGGGCACUGAAACAAUGUCC,1.5 ± 0.025
8,CAGUGCAAUGAUAUUGUCAAAGC,1.07 ± 0.53
9,UAAUACUGUCUGGUAAAACCGU,1.15 ± 0.17
10,UGGAGGAGAAGGAAGGUGAUG,1.81 ± 0.038
11,AGGGCUUAGCUGCUUGUGAGCA,1.75 ± 0.56
12,CACAUUACACGGUCGACCUCU,1.173 ± 0.0052
13,GUGUCUGGGCGGACAGCUGC,1.87 ± 0.23
14,UAUGGCACUGGUAGAAUUCACU,1.65 ± 0.3
15,AGGGGUGGUGUUGGGACAGCUCCGU,2.91 ± 0.23
16,UUUAGGAUAAGCUUGACUUUUG,1.37 ± 0.39
17,UUUGGUCCCCUUCAACCAGCUA,1.61 ± 0.066
18,UAACAGUCUACAGCCAUGGUCG,1.37 ± 0.26
19,AGCAGAAGCAGGGAGGUUCUCCCA,1.55 ± 0.054
20,GUGGGCGGGGGCAGGUGUGUG,1.13 ± 0.44
21,AAAGUGCUUCCCUUUGGACUGU,0.806 ± 0.049
22,UUGCUCACUGUUCUUCCCUAG,0.86933 ± 0.00015

row,Sequence,HRG-induced Akt activation (log2)
1,UAGAGUUACACCCUGGGAGUUA,1.66 ± 0.19
2,AAAAGUAAUUGUGGUUUUGGCC,1.15 ± 0.15
3,UUAUCAGAAUCUCCAGGGGUAC,2.16 ± 0.2
4,AAUCAUACAGGGACAUCCAGUU,1.86 ± 0.16
5,ACUCUAGCUGCCAAAGGCGCU,1.02 ± 0.67
6,ACUGAUUUCUUUUGGUGUUCAG,1.47 ± 0.082
7,CAUCAUCGUCUCAAAUGAGUCU,1.91 ± 0.32
8,UGCGGGGCUAGGGCUAACAGCA,2.49 ± 0.31
9,CCCCACCUCCUCUCUCCUCAG,1.28 ± 0.38
10,ACUGCCCUAAGUGCUCCUUCUGG,1.72 ± 0.1
11,UAAUUGCUUCCAUGUUU,1.75 ± 0.088
12,UGGAAUGUAAAGAAGUAUGUAU,1.76 ± 0.27
13,UAAGGCACGCGGUGAAUGCC,1.15 ± 0.41
14,AAGUGAUCUAAAGGCCUACAU,1.67 ± 0.14
15,AAUCACUAACCACACGGCCAGG,1.79 ± 0.65
16,CCAGUUACCGCUUCCGCUACCGC,1.323 ± 0.011
17,UCUAGUAAGAGUGGCAGUCGA,1.322 ± 0.0056
18,UGUAAACAUCCCCGACUGGAAG,0.646 ± 0.057
19,AAGAUGUGGAAAAAUUGGAAUC,1.68 ± 0.17
20,AGGGACUUUCAGGGGCAGCUGU,1.48 ± 0.18
21,UGAGGUAGUAGUUUGUGCUGUU,1.12 ± 0.026
22,AAUAUAACACAGAUGGCCUGU,1.36 ± 0.25

row,Sequence,HRG-induced Akt activation (log2)
1,GGGUGGGGAUUUGUUGCAUUAC,1.16 ± 0.097
2,UGUCACUCGGCUCGGCCCACUAC,1.17 ± 0.18
3,UUCAUUUGGUAUAAACCGCGAUU,2.42 ± 0.062
4,AGGCAGCGGGGUGUAGUGGAUA,1.58 ± 0.27
5,CAAUCACUAACUCCACUGCCAU,1.69 ± 0.37
6,UGCUUCCUUUCAGAGGGU,1.61 ± 0.34
7,UUUUCAACUCUAAUGGGAGAGA,1.48 ± 0.1
8,GGCUACAACACAGGACCCGGGC,1.88 ± 0.32
9,CUGGAGAUAUGGAAGAGCUGUGU,1.14 ± 0.047
10,AGAGUUGAGUCUGGACGUCCCG,1.98 ± 0.027
11,UGGCAGUGUCUUAGCUGGUUGU,1.99 ± 0.091
12,CCAUGGAUCUCCAGGUGGGU,1.47 ± 0.17
13,UGACCGAUUUCUCCUGGUGUUC,2.09 ± 0.076
14,UAUGCAUUGUAUUUUUAGGUCC,1.1 ± 0.81
15,UAUGUGGGAUGGUAAACCGCUU,2.19 ± 0.34
16,AACCCGUAGAUCCGAACUUGUG,1.11 ± 0.13
17,GUCCAGUUUUCCCAGGAAUCCCU,1.7 ± 0.2
18,AGGCUGCGGAAUUCAGGAC,1.56 ± 0.23

# — the supplement of paper PMC4314810
